According to article PMC6308099, “Suramin, screened from an approved drug library, inhibits HuR functions and attenuates malignant phenotype of oral cancer cells” (Cancer Medicine, 2018):

Target: T1, HuR (Homo sapiens, UniProt Q15717)
T1 construct: gene ELAVL1; full-length HuR (326 residues)
Test: SPR steady state (Biacore T200, immobilized HuR); supported by concentration-dependent positive DSF shift
Format: binding

T1 sequence (Q15717 whole entry): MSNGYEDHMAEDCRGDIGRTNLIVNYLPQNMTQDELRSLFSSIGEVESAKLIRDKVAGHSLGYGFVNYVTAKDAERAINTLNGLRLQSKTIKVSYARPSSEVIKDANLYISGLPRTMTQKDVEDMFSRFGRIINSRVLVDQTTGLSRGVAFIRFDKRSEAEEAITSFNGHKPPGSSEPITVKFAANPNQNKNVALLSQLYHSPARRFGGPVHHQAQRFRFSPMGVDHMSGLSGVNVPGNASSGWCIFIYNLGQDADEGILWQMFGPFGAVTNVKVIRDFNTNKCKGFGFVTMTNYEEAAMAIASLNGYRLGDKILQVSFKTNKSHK

- Kd: 240 µM
Structure (SMILES): Cc1ccc(C(=O)Nc2ccc(S(=O)(=O)O)c3cc(S(=O)(=O)O)cc(S(=O)(=O)O)c23)cc1NC(=O)c1cccc(NC(=O)Nc2cccc(C(=O)Nc3cc(C(=O)Nc4ccc(S(=O)(=O)O)c5cc(S(=O)(=O)O)cc(S(=O)(=O)O)c45)ccc3C)c2)c1 [suramin]
